Columns and labels:
[1] = system: microfluidic devices seeded with human liver cells; assay: APAP metabolite quantification by LC-MS, human Liver-Chip; assay type: in vitro ADME; settings: daily 3 mM for 20 days, quadruple-cell human chip
Source text: After APAP exposure to microfluidic devices seeded with human liver cells, effluent metabolite levels were quantified using LC-MS analysis. […] APAP-Glucuronide (APAP-Glu), the primary metabolite of APAP, was not quantified using a standard curve. Rather, the LC-MS peak area of APAP-Glu was reported corresponding to each sample.

[2] = system: microfluidic devices seeded with human liver cells; assay: Albumin secretion (ELISA), human Liver-Chip; assay type: cell-based; settings: APAP 7 days, quadruple-cell human chip
Source text: Prior to cell seeding, microfluidic devices, in this case S-I Chips (Emulate, Inc. Boston, Mass., USA), were functionalized using Emulate's proprietary protocols and reagents (ER™), including those described herein. After surface functionalization, both channels of the microfluidic device were coated with species-specific extracellular matrices (ECM). For the human bound microfluidic device, a mixture of collagen type I (Corning, Corning, N.Y., USA) and fibronectin, e.g. bovine, (Gibco) was used; for the rat bound microfluidic devices a mixture of collagen type IV, e.g. human placenta, (Sigma-Aldrich, St. Louis, Mo., USA) and fibronectin (Gibco) was used; for the dog bound microfluidic devices a mixture of collagen I (Corning), collagen type IV (Sigma-Aldrich), and fibronectin (Gibco) was used. […] For the dual-cell culture model (hepatocytes and endothelial cells), the LSECs were seeded at a concentration of 2-4 million cells/mL in the lower vascular channel. […] After cell seeding, the upper channel of the microfluidic device was maintained in William's E Medium (WEM) containing Glutamax (Gibco), ITS+ (Corning), dexamethasone (Sigma-Aldrich), ascorbic acid (Sigma-Aldrich), fetal bovine serum (FBS) (Sigma-Aldrich), and Penicillin/Streptomycin (Sigma-Aldrich). The vascular channel of the microfluidic device was maintained with species-specific endothelial media (Emulate, Inc.). Two days after seeding, the microfluidic devices were connected to the Human Emulation System™ (Emulate, Inc.), as described in part herein, and both of the microfluidic device channels were perfused at 30 μL/hr to provide a continuous supply of fresh media for the duration of the experiments. Albumin secretion from the upper channel was quantified using ELISA kits for human, rat, and dog models effluent samples (human and rat: Abcam; dog: Immunology Consultants Laboratory, Inc., Portland, Oreg., USA) and the assays were performed according to the protocol provided by each vendor.

[3] = system: microfluidic devices seeded with liver cells (hepatocytes and LSECs); assay: High-content confocal imaging of Liver-Chips treated with staurosporine; assay type: cell-based, human; settings: 10 μM, six hours of exposure
Protocol: Microfluidic devices were obtained from Emulate Inc. (USA) and are illustrated in FIG. 1A. The channels of the microfluidic devices were coated with a proprietary mixture of extracellular matrix and were incubated overnight at 37° C. Primary human cryopreserved hepatocytes sourced from ThermoFisher, as one example, were seeded in the top channel at a density of 3.5×10^6 cells/mL, and were left to form an attached monolayer at 37° C. in a humidified incubator with a 95%/5% ratio of air to CO2.
Twenty-four hours after seeding, the hepatocyte monolayer was overlaid with Matrigel Matrix sourced from Corning, USA. Primary human cryopreserved liver sinusoidal endothelial cells, also known as LSECs, were seeded on the bottom channel of the microfluidic device at a density of 2 to 4×10^6 cells/mL in endothelial medium, also known as CSC medium or Base LSEC Culture Medium; CSC basal Medium plus Culture-Boost (2%), Cell Systems, and Pen/Strep (1%), Sigma. In some embodiments, endothelial cells are cultured in Complete LSEC Culture Medium, Base LSEC Culture Medium plus 10% FBS. […]
The effects of agents, such as staurosporine on cell phenotype was evaluated. […] The protocol was chosen as it was analogous to how the compound has been evaluated in vivo. […]

[4] = system: Kupffer cells; assay: Kupffer cell count (CD68-positive cells), human Liver-Chip; assay type: cell-based; settings: human quadruple-cell chip
Protocol: Microfluidic devices seeded with liver cells and static sandwich plate cultures were fixed with 4% paraformaldehyde for 15 minutes at room temperature, washed with PBS, and permeabilized (saponin 1% with 10% serum in PBS). Blocking and incubation with the primary antibodies (overnight in PBS containing 1% BSA or PBS containing 10% serum and 1% BSA) was followed by a two-hour incubation with secondary antibodies (Cell Signaling, Danvers, Mass., USA) in the same blocking buffer. Immunostaining was performed with specific primary antibodies (anti-MRP2, anti-stabilin-1, anti-BSEP, anti-α-SMA, anti-CD68; Abcam, Cambridge, Mass., USA) and images were acquired with either an Olympus fluorescence microscope (IX83) or Zeiss confocal microscope (AxiovertZ1 LSM880).
The number of CD68- or α-SMA-positive cells in the vascular channel in each group was counted in each field of view ([…]) and quantified.

[5] = system: dogs; assay: Repeat-dose toxicity studies in dogs; assay type: in vivo; settings: dog study of the cFMS/FLT3 inhibitor
Protocol: JNJ-1, prepared in purified water, was administered once daily for 14 days to 5 male and 5 female rats at doses of 5, 25, and 125 mg/kg. In a separate study, JNJ-1, also in purified water, was administered once daily for 4 weeks to 5 male and 5 female dogs at 0 or 40 mg/kg/day, and to 3 males and 3 female dogs at 2 or 10 mg/kg/day. Mortality, clinical observations, body weight, food consumption, clinical pathology, gross necropsy and microscopic examination of selected tissues, and toxicokinetics were evaluated. […] Histology slides (hematoxylin and eosin staining and Mason's Trichrome staining) of the liver tissues were prepared and evaluated microscopically. The quantification of JNJ-1 was conducted using a qualified liquid chromatographic-triple quadrupole mass spectrometric (LC-MS/MS) procedure.
JNJ-3 (in 20% hydroxypropyl-β-cyclodextrin) was administered once daily for 14 days to 3 male beagle dogs per group at doses of 15 and 65 mg/kg. Mortality, clinical observations, body weight, food consumption, clinical pathology, gross necropsy and microscopic examination of selected tissues, and toxicokinetics were evaluated. […] Histology slides (hematoxylin and eosin staining and Mason's Trichrome staining) of the liver tissues were prepared and evaluated microscopically. […]

[6] = system: microfluidic devices seeded with human liver cells; assay: Cytokine release (IL-6, MCP-1, IP-10) from vascular channel, human Liver-Chip; assay type: cell-based; settings: human quadruple-cell chip
Protocol: Cytokines: Release of IL-6, MCP-1, and IP-10 from the vascular channel was quantified using U-PLEX biomarker human assays (Meso Scale Diagnostics, Rockville, Md., USA) and the assays were performed according to the protocol provided by the vendor.

[7] = system: rats; assay: Repeat-dose toxicity studies in rats; assay type: in vivo; settings: rat study of the cFMS/FLT3 inhibitor
Protocol: JNJ-1, prepared in purified water, was administered once daily for 14 days to 5 male and 5 female rats at doses of 5, 25, and 125 mg/kg. In a separate study, JNJ-1, also in purified water, was administered once daily for 4 weeks to 5 male and 5 female dogs at 0 or 40 mg/kg/day, and to 3 males and 3 female dogs at 2 or 10 mg/kg/day. Mortality, clinical observations, body weight, food consumption, clinical pathology, gross necropsy and microscopic examination of selected tissues, and toxicokinetics were evaluated. Rats or dogs were fasted overnight prior to blood collection for measurement of clinical pathology parameters (including AST and ALT) at the end of 14 days (rats) or 4 weeks (dogs) of dosing. Histology slides (hematoxylin and eosin staining and Mason's Trichrome staining) of the liver tissues were prepared and evaluated microscopically. The quantification of JNJ-1 was conducted using a qualified liquid chromatographic-triple quadrupole mass spectrometric (LC-MS/MS) procedure.
Regarding histology procedures, the liver was sampled. Briefly, 5 serial sections were prepared. One was stained with hematoxylin and eosin (H&E) kit. The 4 others were submitted to histochemical and immunohistochemical stains. Collagen was detected with the Van Gieson kit (Merck, Darmstadt, Germany), and reticulin, with the Reticulum kit (Sigma-Aldrich). […]

[8] = system: 3D human spheroid hepatic cultures; settings: fold higher than the human Liver-Chip IC50; cited from earlier work
[9] = molecular target: T1, bile salt export pump (BSEP) (Homo sapiens, UniProt O95342); assay: CLF efflux into bile canaliculi (BSEP activity), human Liver-Chip; assay type: cell-based; settings: 30 μM, co-treatment with CLF
T1 construct: Primary rat, dog or human hepatocytes were cultured in the upper parenchymal channel; endogenous in cells; host or cells: primary human hepatocytes co-cultured with LSECs in a microfluidic Liver-Chip
Protocol: Each staining solution was prepared in blank medium or compound dosing medium and added to the upper channel, incubated for 15 minutes at 37° C., and washed three times with medium. The stained microfluidic devices were imaged using a specific filter, and were de-blurred with Olympus cellSens software. Using ImageJ-Fiji, the fluorescent channel images were histogram adjusted to remove background, followed by fluorescence quantification using the Integrated Density calculation function.
Both a brightfield and a fluorescence image was taken from each field of view. […] CLF-labeled regions that most likely to corresponded to bile canaliculi were automatically identified based on geometric criteria and retained only if they co-localized with a bile canaliculi signal in channel 1. […] These criteria were determined empirically using a small test set of images and then applied to images for the analysis. […] The data for treated and control samples were quantified by computing the area percentage of CLF-labeled bile canaliculi within each field of view (FOV).

[10] = system: microfluidic devices seeded with rat liver cells; assay: Albumin secretion (ELISA), rat Liver-Chip; assay type: cell-based; settings: 168 h; dual-cell rat chips, daily administration 1-100 μM for 7 days; read-out: IC50 of decrease in albumin secretion
Source text: Prior to cell seeding, microfluidic devices, in this case S-I Chips (Emulate, Inc. Boston, Mass., USA), were functionalized using Emulate's proprietary protocols and reagents (ER™), including those described herein. After surface functionalization, both channels of the microfluidic device were coated with species-specific extracellular matrices (ECM). For the human bound microfluidic device, a mixture of collagen type I (Corning, Corning, N.Y., USA) and fibronectin, e.g. bovine, (Gibco) was used; for the rat bound microfluidic devices a mixture of collagen type IV, e.g. human placenta, (Sigma-Aldrich, St. Louis, Mo., USA) and fibronectin (Gibco) was used; for the dog bound microfluidic devices a mixture of collagen I (Corning), collagen type IV (Sigma-Aldrich), and fibronectin (Gibco) was used. […] For the dual-cell culture model (hepatocytes and endothelial cells), the LSECs were seeded at a concentration of 2-4 million cells/mL in the lower vascular channel. […] Albumin secretion from the upper channel was quantified using ELISA kits for human, rat, and dog models effluent samples (human and rat: Abcam; dog: Immunology Consultants Laboratory, Inc., Portland, Oreg., USA) and the assays were performed according to the protocol provided by each vendor.

[11] = system: BSEP; assay: BSEP protein area and gene expression, human Liver-Chip; assay type: cell-based; settings: 30 μM
Protocol: In one embodiment, gene expression levels were analyzed using 2-step PCR. […] Relative gene expression levels were calculated using ddCt method.
The fluorescent channel images were first de-blurred with Olympus cellSens software. Using ImageJ, they were then histogram adjusted to remove background, adaptive thresholded to extract fluorescent regions (a plugin developed by Qingzong Tseng using the adaptive threshold method of the OpenCV library), and analyzed using the built-in 3D Object Counter function with an area cutoff value to remove noise.

T1 sequence (O95342 whole entry): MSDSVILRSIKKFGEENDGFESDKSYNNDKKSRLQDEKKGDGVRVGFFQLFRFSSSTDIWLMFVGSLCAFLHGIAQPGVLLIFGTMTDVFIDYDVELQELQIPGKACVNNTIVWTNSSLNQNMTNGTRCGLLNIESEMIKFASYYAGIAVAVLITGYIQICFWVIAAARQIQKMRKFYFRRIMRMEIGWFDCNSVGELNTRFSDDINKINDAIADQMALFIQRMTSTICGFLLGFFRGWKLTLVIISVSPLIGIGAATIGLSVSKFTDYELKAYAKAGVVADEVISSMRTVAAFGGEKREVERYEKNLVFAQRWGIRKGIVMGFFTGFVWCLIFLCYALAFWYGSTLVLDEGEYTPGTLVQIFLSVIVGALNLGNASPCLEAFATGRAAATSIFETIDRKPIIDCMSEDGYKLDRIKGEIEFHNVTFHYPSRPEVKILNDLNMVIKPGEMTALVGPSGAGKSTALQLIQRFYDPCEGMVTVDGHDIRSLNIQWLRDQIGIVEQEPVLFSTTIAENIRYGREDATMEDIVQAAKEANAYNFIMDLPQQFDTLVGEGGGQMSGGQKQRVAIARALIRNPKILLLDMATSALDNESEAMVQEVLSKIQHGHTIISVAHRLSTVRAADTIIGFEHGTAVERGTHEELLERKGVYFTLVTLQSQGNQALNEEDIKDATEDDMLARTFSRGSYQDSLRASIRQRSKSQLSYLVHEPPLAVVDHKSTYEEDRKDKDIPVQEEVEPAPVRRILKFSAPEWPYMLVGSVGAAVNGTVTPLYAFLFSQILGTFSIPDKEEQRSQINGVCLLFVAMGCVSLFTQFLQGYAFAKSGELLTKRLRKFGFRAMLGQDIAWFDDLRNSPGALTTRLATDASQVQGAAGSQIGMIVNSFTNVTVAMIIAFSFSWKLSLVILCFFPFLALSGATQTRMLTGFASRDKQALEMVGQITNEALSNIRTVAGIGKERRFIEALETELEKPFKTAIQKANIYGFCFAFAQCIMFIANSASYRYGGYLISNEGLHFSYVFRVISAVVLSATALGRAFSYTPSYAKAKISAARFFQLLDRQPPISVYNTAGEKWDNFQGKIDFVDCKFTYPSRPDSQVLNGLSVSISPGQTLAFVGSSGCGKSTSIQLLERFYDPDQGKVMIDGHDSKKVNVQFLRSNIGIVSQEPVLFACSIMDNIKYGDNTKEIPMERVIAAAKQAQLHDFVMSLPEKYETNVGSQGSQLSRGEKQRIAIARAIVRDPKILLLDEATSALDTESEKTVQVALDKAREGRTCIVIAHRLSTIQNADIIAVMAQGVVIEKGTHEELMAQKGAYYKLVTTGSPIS

## CC(=O)Nc1ccc(O)cc1 [APAP, acetaminophen]
[1]
  APAP glucuronide in parenchymal and vascular channels: significant amounts
[2]
  albumin synthesis: decreased

## CN[C@@H]1C[C@H]2O[C@@](C)([C@@H]1OC)n1c3ccccc3c3c4c(c5c6ccccc6n2c5c31)C(=O)NC4 [Staurosporine, staurosporine]
[3]
  LSECs: complete loss
  apoptotic marker (CC3): marked increases

## CN(C)CC(=O)N1CCC(c2ccc(NC(=O)c3nc(C#N)c[nH]3)c(C3=CCCCC3)c2)CC1 [a JNJ compound]
[4]
  CD68-positive cells (Kupffer cell depletion): decreased number
[5]
  microscopic changes in the liver: without any correlative microscopic changes
  transaminases: Dose-related elevation
[6]
  interleukin 6 (IL-6) in the vascular channel: dose-dependent decrease
  monocyte chemoattractant protein-1 (MCP-1) in the vascular channel: dose-dependent decrease
[7]
  microscopic changes in the liver: without any correlative microscopic changes
  transaminases: Dose-related elevation

## COc1ccccc1Oc1c(NS(=O)(=O)c2ccc(C(C)(C)C)cc2)nc(-c2ncccn2)nc1OCCO [bosentan]
[8]
  IC50 in 3D human spheroid hepatic cultures relative to human chip: more than 10 fold
[9]
  CLF in human hepatocytes: intracellular accumulation
[10]
  IC50: > 100 µM
[11]
  BSEP mRNA levels: decreases
  BSEP protein levels: decreases

— patent publication US20210341378A1, “HIGH-CONTENT IMAGING OF MICROFLUIDIC DEVICES” (priority 2019, published 2021)
